Reference: patent US20230270721A1, “INHIBITION OF BAX-MEDIATED CELL DEATH BY ELTROMBOPAG” (Albert Einstein College of Medicine, priority 2020, published 2023)
Read-outs that look alike come from different tables or passages of the source.

How the values were obtained:
BAX KO (BAX-/-) MEFs = test: Cytochrome c release assay (ELISA), BAX KO MEFs; type: cell-based, mouse; conditions: BIM-BH3 peptide
Experimental: BAX^-/^- or BAK^-/^- mouse embryonic fibroblasts were maintained in DMEM (Life Technologies) supplemented with 10% FBS, 100 U/mL penicillin/streptomycin, 2 mM I-glutamine, and 0.1 mM MEM nonessential amino acids. MEFs (5×10^4 cells/well) were seeded in a 96 well clear u-bottom plate for 18-24 hr. Media was removed and replaced with media lacking FBS, and cells were treated with varying doses of EO for 2 hours at 37° C. […] Cytochrome c release was determined by decanting 50 µL of the supernatant and analyzing with the rat/mouse cytochrome c quantikine ELISA kit (R&D Systems, MCTO) according to the recommended protocol. […]
It is important to note that THPO-receptor agonist activity of EO is highly specific to the human and chimpanzee THPO-receptors, making mouse cell lines ideal for studying EO modulation of BAX-dependent activity independent of THPO-mediated effects (Erickson-Miller, C. L. et al. Stem Cells 27, 424-430 (2009)). First, mitochondrial cytochrome c release, a hallmark of BAX activation and BAX-dependent apoptosis, was evaluated. […] Next, mitochondrial translocation of cytosolic BAX upon treatment with either BIM BH3 or staurosporine (STS) in BAK KO MEFs was evaluated.

3T3 cells = test: Cell viability assay (CellTiter-Glo), ABT-263 + S63845; type: cell-based, murine; conditions: 1 µM ABT-263 and 1 µM S63845, 24 hr
Experimental: 3T3 cells were maintained in media identical to that of MEFs. 3T3 cells were seeded (1×10^4 cells/well) in 96-well opaque plates for 18-24 hr. The media was removed and replaced with media lacking FBS, and cells were treated with EO as a 10X stock in H2O at the indicated doses for 2 hr before addition of 10% FBS. Cells were then treated with 1 µM each of ABT-263 and S63845. Caspase 3/7 activation was measured at 4 hr by addition of the Caspase-Glo 3/7 chemiluminescence reagent in accordance with the manufacturer’s protocol (Promega). Luminescence was detected by an F200 PRO microplate reader (TECAN). Percentage caspase activation was normalized to ABT-263 + S63845 alone (100%) and untreated cells (0%). Viability assays were performed at 24 hr by addition of CellTiter-Glo according to the manufacturer’s protocol (Promega). Luminescence was detected by an F200 PRO microplate reader (TECAN). Percentage viability was normalized to untreated cells (100%).
Next, whether EO is capable of rescuing cell death in cells expressing both BAX and BAK was determined. 3T3 cells, a murine fibroblast cell line, were treated with a combination of BH3-mimetics navitoclax (ABT-263) and S63845, which only in combination cause significant cytotoxicity in fibroblast cells.

BAX = target: T1, BAX (Homo sapiens, UniProt Q07812); test: Liposomal permeabilization (ANTS/DPX release) assay; type: biochemical; conditions: for IC50: 30 minutes
T1 construct: Human full-length (1-192) wild-type BAX (Q07812); made in house; host or cells: E. coli BL21 (DE3) CodonPlus (DE3)-RIPL
Experimental: Lipids (Avanti Polar Lipids) at the following ratio, phosphatidylcholine 48%, phosphatidylinositol 10%, dioleoyl phosphatidylserine 10%, phosphatidylethanolamine, 28%, and tetraoleoyl cardiolipin 4%, were mixed in a total of 1 mg, dried and resuspended in 10 mM HEPES, pH 7, 200 mM KCI, and 5 mM MgCl2 with 12.5 mM 8-aminonaphthalene-1,3,6-trisulfonic acid (ANTS) dye and 45 mM p-xylene-bis-pyridinium bromide (DPX) quencher (Molecular Probes) using a water bath sonicator. Liposomes were formed by extrusion of the suspension using Avanti Mini-Extruder (Cat # 610000) with polycarbonate membranes of 0.1 µm pore size (Avanti Polar Lipids). ANTS/DPX encapsulated liposomes were purified from non-encapsulated ANTS/DPX by gel filtration of a 10 mL CL2B-Sepharose (GE Healthcare Life Sciences) gravity-flow column. BAX (50-250 nM) was combined with tBID, BIM, and EO at the indicated concentrations to a volume of 90 µL. Reactions were initiated by the addition of […] of the encapsulated ANTS/DPX liposome stock. ANTS/DPX release was quantified based on the increase in fluorescence intensity that occurs when the ANTS fluorophore is separated from the DPX quencher upon release from the liposomes into solution. Fluorescence (λex = 355 nm and λem = 520 nm) was measured at 1 minute intervals at room temperature (22-25° C.) indicated using a Tecan Infinite M1000 plate reader. In the case of heat activation, reactions were set up as described in the absence of tBID or BIM, and experiments were recorded at 42° C. The percentage release of ANTS/DPX at any given time point was calculated as percentage release=((F-F0)/(F100-F0))(100), where F0 and F100 are baseline and maximal fluorescence, respectively. Triton X-100 (1%) was used to determine the maximum amount of liposomal release per assay and was set to 100%.
Next, EO’s capacity to modulate BAX activity was evaluated using liposomal release assays. […] Instead, EO was able to inhibit both tBID- and BIM BH3-mediated BAX activation (FIGS. 1E, 1F, and 1G). Inhibition of tBID-mediated BAX activation by EO was inversely proportional to the concentration of the tBID activator, consistent with competitive inhibition of BH3-activator binding.

T1 sequence (Q07812 whole entry): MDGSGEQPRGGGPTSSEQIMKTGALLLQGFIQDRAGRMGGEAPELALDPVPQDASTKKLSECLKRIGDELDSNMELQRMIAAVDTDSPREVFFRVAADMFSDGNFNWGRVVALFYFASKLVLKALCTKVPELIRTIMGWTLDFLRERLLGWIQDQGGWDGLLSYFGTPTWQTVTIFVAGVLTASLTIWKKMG

`CC1=NN(c2ccc(C)c(C)c2)C(=O)/C1=N\Nc1cccc(-c2cccc(C(=O)O)c2)c1O` [EO, eltrombopag] was tested, and the “BIM-BH3 induced release of cytochrome c” value (BAX KO (BAX-/-) MEFs) was “no such effect”, the cell viability (3T3 cells) was “dose-dependent rescue of cell viability” and the IC50 (BAX; 50 nM BAX and 5 nM tBID, read-out: tBID IC50, inhibition of BAX activity in liposomal release) was 2.4 µM. For the same compound, the IC50 (BAX; 50 nM BAX, read-out: BIM IC50, inhibition of BAX activity in liposomal release) was 4.7 µM, the IC50 (BAX; 250 nM BAX at 42° C., read-out: heat IC50, inhibition of BAX activity in liposomal release) was 4.5 µM and the “ability to activate BAX in liposomal release assay” value (BAX; concentrations up to 10 µM, no activator) was “no ability to activate BAX”.
